# Assay results: patent publication US10428024B2, “Piperidinyl derivatives” (MERCK PATENT GMBH, priority 2016, dated 2019)
# pIC50, pKd: −log10 of the molar value.
# Legend:
# PDHK2 = PDHK2 (Homo sapiens (Human), UniProt Q15119); experiment: Biochemical activity testing of PDHK2: PDC inactivation assay; settings: human rec PDHK2, 5 μM ATP, read-out: IC50 PDHK2 (enzyme assay)
# Description: Biochemical Activity Testing of PDHK2: PDC Inactivation Assay
# The biochemical activity assay for PDHK2 is based on the inactivation of PDC through phosphorylation by PDHK2. The assay is run in two steps: the enzymatic PDHK2 reaction in which isolated PDC is phosphorylated by PDHK2 with ATP as co-substrate and the PDC activity assay in which pyruvate and NAD are converted to acetyl-CoA and NADH. The PDC activity correlates to the increase in NADH and thereby is detectable directly via the increasing fluorescence signal (Exc 340 nm, Em 450 nm). Inhibition of PDHK2 results in a lower phosphorylation status and thereby a less decrease in activity of PDC and a stronger increase in NADH fluorescence signal.
# The PDC inactivation assay is performed in Greiner 384-well microtiter plates and is used for high throughput screen. 4 μl of PDHK2 (human, rec, Carna Bioscience, 10 ng/μl-137 nM final concentration) and PDC (isolated from porcine heart, Sigma-Aldrich, 20 mU/ml final concentration) are incubated in the absence or presence of the test compound (10 dilution concentrations) for 30 min at room temperature in kinase buffer (15 mM potassium phosphate buffer, pH 7.0, 60 mM KCl, 1.5 mM DTT, 2.5 mM MgCl2, 0.0125% (w/v) BSA, 0.125% Pluronic F-68). The kinase reaction is started by the addition of 4 μl ATP substrate solution (fc 5 μM in kinase buffer). After 30 min incubation at 37° C. 40 μl of PDC reaction solution (100 mM Tris/HCl, pH 7.8, 0.5 mM EDTA, 1 mM MgCl2, 50 mM NaF, 0.25 mM Coenzyme A, 5 mM pyruvate, 1 mM NAD, 5 mM DTT, 1 mM thiamine pyrophosphate) is added. The first fluorescence measurement is performed on a Perkin Elmer Envision (Exc 340 nm, Em 450 nm). The reaction is incubated for 45 min at room temperature. Afterwards a second fluorescence measurement is performed and the PDC activity is calculated by the difference between both measurements. As full value for the PDHK2 assay the inhibitor-free PDHK2 reaction is used. The pharmacological zero value used is DCA (Sigma-Aldrich) in a final concentration of 3 mM. The inhibitory values (IC50) were determined using either the program Symyx Assay Explorer® or Condosseo® from GeneData.
# human PDHK2 (12-407) = human PDHK2 (12-407) (Homo sapiens (Human), UniProt Q15119); experiment: Isothermal titration calorimetry (ITC); settings: 30° C., pH 7.5; read-out: Binding (ITC) KD
# Experimental: Isothermal Titration Calorimetry
# ITC measurements were performed with a VP-ITC micro calorimeter (Microcal, LLC/GE Healthcare Bio-Sciences AB, Uppsala, Sweden). In general titrations were performed by titrating the protein (50 μM) to the test compound (5 μM) in 12 μl injections. All binding experiments were carried out at 30° C. In general the test compounds were diluted form DMSO stock solutions into the measurement buffer with a maximum final concentration of 1% DMSO. The measurement buffer was 20 mM HEPES, 135 mM KCl, 1 mM TCEP, 2 mM MgCl2, 15 mM NaH2PO4, pH 7.5. The human PDHK2 (12-407) was produced in E. coli as his-tagged protein and purified by affinity chromatography. The tag was removed by side specific proteolysis. Before titration the protein buffer was changed to the measurement buffer containing the same DMSO concentration as the test compound dilution. ITC data analysis was performed using Origin 7 calorimetry software from the same supplier. For most measurements a binding model of one binding site was assumed. According to the applied mathematical model it is possible to calculate the binding constant (KA), the observed binding enthalpy (ΔH^obs) as well as the stoichiometry (N) of the formed complex. Preceding analysis the raw data was corrected for the heats of dilution by extrapolating from the saturation value from the end of titration. In order to allow for direct comparison between the respective experimental series and protein preparations the protein concentration was corrected by referencing titrations to a well behaved standard inhibitor. The apparent stoichiometry values defined the fraction of binding competent protein and compensated for relative errors in protein concentration measurements. This corrected protein concentration was used to set up ITC experiment series with test compounds. Any deviations from ideal 1:1 stoichiometry observed here were attributed to errors in compound concentration. This nominal compound concentration was corrected as well to achieve 1:1 stoichiometry in the fit.
# [1] = system: PDH-E1alpha (pSer300) in HEK293T cells; experiment: Cellular immunofluorescence assay (Anti-PDH-E1alpha (pSer300)) in HEK293T cells; type: cell-based; settings: Homo sapiens, HEK-293T, 5 hours incubation, read-out: IC50 (cell data)
# Experimental: Cellular Assay for Determination of Compound Activities
# Compound activities were determined in a cellular immunofluorescence assay.
# Human HEK293T cells were seeded into black 384-well plates with clear bottom and grown overnight.
# Next day, test compounds were added to the wells and the plates incubated for 5 hours. Following this, cells were fixed with formaldehyde, permeabilised and blocked. The primary antibody, Anti-PDH-E1alpha (pSer300), AP1064 (Merck Millipore) was added and incubated overnight in the plate wells. Next, cells were washed and the secondary antibody, Alexa Fluor 488, goat anti-rabbit ab (A-11008, Invitrogen) was added together with Hoechst 33258 (H3569, Invitrogen) and incubated for 1 hour in the plate wells. Finally, cells were washed and the plates were measured on the laser scanning cytometer acumen hci (TTpLabtech).
# The raw data were normalized against a pharmacological inhibitor control and dose response curves were generated by plotting the percent effect values using the software package Genedata screener (Genedata).
pIC50 (PDHK2),pKd (human PDHK2 (12-407)),Structure (SMILES),pIC50 [1]
6.59,7.16,"Cc1ccc(C(=O)N(C)C2CCN(C(=O)[C@@](C)(O)C(F)(F)F)CC2)c(F)c1 [Compound A18, 2-Fluoro-4,N-dimethyl-N-{1-[(R)-3,3,3-trifluoro-2-hydroxy-2-methyl-propionyl]-piperidin-4-yl}-benzamide]",6.15
6.52,7.89,"Cc1ccc(C(=O)N(C)[C@H]2CCN(C(=O)[C@@](C)(O)C(F)(F)F)C[C@H]2C)c(F)c1 [Compound A27, 2-Fluoro-N,4-dimethyl-N-[(3R,4S)-3-methyl-1-[(2R)-3,3,3-trifluoro-2-hydroxy-2-methylpropanoyl]piperidin-4-yl]benzamide]",8.03
6.54,7.36,"C[C@@H]1CN(C(=O)[C@@](C)(O)C(F)(F)F)CC[C@@H]1N(C)C(=O)c1ccc(C(F)(F)F)cc1 [Compound A62, N-Methyl-N-[(3R,4S)-3-methyl-1-[(2R)-3,3,3-trifluoro-2-hydroxy-2-methylpropanoyl]piperidin-4-yl]-4-(trifluoromethyl)benzamide]",6.54
6.26,7.28,"CN(C(=O)c1ccc(C(F)(F)F)cc1Cl)C1CCN(C(=O)[C@@](C)(O)C(F)(F)F)CC1 [Compound A19, 2-Chloro-N-methyl-N-{1-[(2R)-3,3,3-trifluoro-2-hydroxy-2-methylpropanoyl]piperidin-4-yl}-4-(trifluoromethyl)benzamide]",6.28
5.68,6.46,"CCN(C(=O)c1ccc(C#N)cc1)C1CCN(C(=O)[C@@](C)(O)C(F)(F)F)CC1 [Compound A66, 4-Cyano-N-ethyl-N-[1-((R)-3,3,3-trifluoro-2-hydroxy-2-methyl-propionyl)-piperidin-4-yl]-benzamide]",5.57
6.39,7.16,"CCN(C(=O)c1ccc(C)cc1F)C1CCN(C(=O)[C@@](C)(O)C(F)(F)F)CC1 [Compound A64, N-Ethyl-2-fluoro-4-methyl-N-[1-((R)-3,3,3-trifluoro-2-hydroxy-2-methyl-propionyl)-piperidin-4-yl]-benzamide]",6.51
6.60,6.96,"Cc1ccc(C(=O)N(C)C2CCN(C(=O)[C@@](C)(O)C(F)(F)F)CC2)cc1 [Compound A17, N,4-Dimethyl-N-{1-[(2R)-3,3,3-trifluoro-2-hydroxy-2-methylpropanoyl]piperidin-4-yl}benzamide]",6.00
6.96,7.59,"C[C@@H]1CN(C(=O)[C@@](C)(O)C(F)(F)F)CC[C@@H]1C(=O)N(C)c1ccc(Cl)cc1 [Compound A10, (3S,4S)—N-(4-chlorophenyl)-N,3-dimethyl-1-[(2R)-3,3,3-trifluoro-2-hydroxy-2-methylpropanoyl]piperidine-4-carboxamide]",6.77
6.82,7.89,"C[C@@H]1CN(C(=O)[C@@](C)(O)C(F)(F)F)CC[C@@H]1N(C)C(=O)c1ccc(F)cc1Cl [Compound A50, 2-Chloro-4-fluoro-N-methyl-N-[(3R,4S)-3-methyl-1-[(2R)-3,3,3-trifluoro-2-hydroxy-2-methylpropanoyl]piperidin-4-yl]benzamide]",7.21
6.15,7.34,"C[C@@H]1CN(C(=O)[C@@](C)(O)C(F)(F)F)CC[C@@H]1N(C)C(=O)c1ccccc1 [Compound A32, N-Methyl-N-[(3R,4S)-3-methyl-1-[(2R)-3,3,3-trifluoro-2-hydroxy-2-methylpropanoyl]piperidin-4-yl]benzamide]",6.85
6.52,7.28,"C[C@@H]1CN(C(=O)[C@@](C)(O)C(F)(F)F)CC[C@@H]1N(C)C(=O)c1ccc(C#N)cc1 [Compound A44, 4-Cyano-N-methyl-N-[(3R,4S)-3-methyl-1-[(2R)-3,3,3-trifluoro-2-hydroxy-2-methylpropanoyl]piperidin-4-yl]benzamide]",6.46
6.70,–,"Cc1ccc(N(C)C(=O)C2CCN(C(=O)[C@@](C)(O)C(F)(F)F)CC2C)c(F)c1 (stereo partly drawn) [Compound A12, N-(2-fluoro-4-methylphenyl)-N,3-dimethyl-1-[(2R)-3,3,3-trifluoro-2-hydroxy-2-methylpropanoyl]piperidine-4-carboxamide]",6.72
6.70,7.05,"Cc1ccc(N(C)C(=O)C2CCN(C(=O)[C@@](C)(O)C(F)(F)F)CC2)c(F)c1 [Compound A2, 1-((R)-3,3,3-Trifluoro-2-hydroxy-2-methyl-propionyl)-piperidine-4-carboxylic acid (2-fluoro-4-methyl-phenyl)-methyl-amide]",5.59
6.60,7.42,"C[C@@H]1CN(C(=O)[C@@](C)(O)C(F)(F)F)CC[C@@H]1N(C)C(=O)c1ccc(F)cc1 [Compound A29, 4-Fluoro-N-methyl-N-[(3R,4S)-3-methyl-1-[(2R)-3,3,3-trifluoro-2-hydroxy-2-methylpropanoyl]piperidin-4-yl]benzamide]",6.54
6.92,7.85,"Cc1ccc(N(C)C(=O)[C@H]2CCN(C(=O)[C@@](C)(O)C(F)(F)F)C[C@H]2C)c(F)c1 [Compound A13, (3S,4S)—N-(2-fluoro-4-methylphenyl)-N,3-dimethyl-1-[(2R)-3,3,3-trifluoro-2-hydroxy-2-methylpropanoyl]piperidine-4-carboxamide]",7.15
5.80,6.33,"CC(C)N(C(=O)c1ccc(C#N)cc1)C1CCN(C(=O)[C@@](C)(O)C(F)(F)F)CC1 [Compound A67, 4-Cyano-N-isopropyl-N-[1-((R)-3,3,3-trifluoro-2-hydroxy-2-methyl-propionyl)-piperidin-4-yl]-benzamide]",5.39
6.64,7.46,"C[C@@H]1CN(C(=O)[C@@](C)(O)C(F)(F)F)CC[C@@H]1N(C)C(=O)c1ccc(C(F)(F)F)cc1F [Compound A47, 2-Fluoro-N-methyl-N-[(3R,4S)-3-methyl-1-[(2R)-3,3,3-trifluoro-2-hydroxy-2-methylpropanoyl]piperidin-4-yl]-4-(trifluoromethyl)benzamide]",6.72
6.39,7.29,"C[C@@H]1CN(C(=O)[C@@](C)(O)C(F)(F)F)CC[C@@H]1N(C)C(=O)c1ccc(F)cn1 [Compound A53, 5-Fluoro-N-methyl-N-[(3R,4S)-3-methyl-1-[(2R)-3,3,3-trifluoro-2-hydroxy-2-methylpropanoyl]piperidin-4-yl]pyridine-2-carboxamide]",6.47
